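Compound exposure: 48 hours, 5 concentrations, 96-well plates. At the GI50, growth is halved.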 Activity calls are given as the source filed them. No stated cut-off is given here; in the data, active = GI50 up to about 1.1 µM and inactive = higher.
Legend:
Experiment in all cases: NCI tumour cell line growth inhibition, 48 h
A549 = test system: A549
CCRF-CEM = test system: CCRF-CEM
DLD-1 = test system: DLD-1
DMS-114 = test system: DMS-114
DMS-273 = test system: DMS-273
HCC 2998 = test system: HCC 2998
HCT-116 = test system: HCT-116
HCT-15 = test system: HCT-15
HOP-18 = test system: HOP-18
HOP-62 = test system: HOP-62
HOP-92 = test system: HOP-92
IGROV-1 = test system: IGROV-1
KM-20L2 = test system: KM-20L2
M19-MEL = test system: M19-MEL
MOLT-4 = test system: MOLT-4
Malme-3M = test system: Malme-3M
NCI-H226 = test system: NCI-H226
NCI-H23 = test system: NCI-H23
NCI-H460 = test system: NCI-H460
NCI-H522 = test system: NCI-H522
NCI/ADR-RES = test system: NCI/ADR-RES
OVCAR-4 = test system: OVCAR-4
OVCAR-5 = test system: OVCAR-5
RPMI-8226 = test system: RPMI-8226
SK-MEL-2 = test system: SK-MEL-2
SK-MEL-5 = test system: SK-MEL-5
SN12C = test system: SN12C
SNB-75 = test system: SNB-75
SNB-78 = test system: SNB-78
UACC-257 = test system: UACC-257
UACC-62 = test system: UACC-62
XF498 = test system: XF498
A498 = test system: A498
ACHN = test system: ACHN
CAKI-1 = test system: CAKI-1
COLO 205 = test system: COLO 205
EKVX = test system: EKVX
HL-60 = test system: HL-60
HT-29 = test system: HT-29
K562 = test system: K562
KM12 = test system: KM12
LXFL 529 = test system: LXFL 529
M14 = test system: M14
OVCAR-3 = test system: OVCAR-3
OVCAR-8 = test system: OVCAR-8
SF-268 = test system: SF-268
SF-295 = test system: SF-295
SF-539 = test system: SF-539
SK-MEL-28 = test system: SK-MEL-28
SK-OV-3 = test system: SK-OV-3
SNB-19 = test system: SNB-19
SR = test system: SR
SW-620 = test system: SW-620
TK-10 = test system: TK-10
U-251 = test system: U-251
UO-31 = test system: UO-31
786-0 = test system: 786-0
LOX IMVI = test system: LOX IMVI

O=C1C=C2C(=CCOC2O)O1 (stereo unspecified) [PATULIN]
GI50 (A549): 4.1 µM (inactive)
GI50 (CCRF-CEM): 0.158 µM (active)
GI50 (DLD-1): 0.456 µM (active)
GI50 (DMS-114): 1.08 µM (active)
GI50 (DMS-273): 0.881 µM (active)
GI50 (HCC 2998): 1.15 µM (inactive)
GI50 (HCT-116): 0.223 µM (active)
GI50 (HCT-15): 0.668 µM
GI50 (HOP-18): 1.98 µM (inactive)
GI50 (HOP-62): 10.6 µM (inactive)
GI50 (HOP-92): 3.08 µM (inactive)
GI50 (IGROV-1): 2.1 µM (inactive)
GI50 (KM-20L2): 2.28 µM (inactive)
GI50 (M19-MEL): 1.29 µM (inactive)
GI50 (MOLT-4): 0.368 µM (active)
GI50 (Malme-3M): 1.12 µM (active)
GI50 (NCI-H226): 3.49 µM (inactive)
GI50 (NCI-H23): 1.15 µM (inactive)
GI50 (NCI-H460): 1.16 µM (inactive)
GI50 (NCI-H522): 0.365 µM (active)
GI50 (NCI/ADR-RES): 0.733 µM (active)
GI50 (OVCAR-4): 2.84 µM (inactive)
GI50 (OVCAR-5): 7.4 µM (inactive)
GI50 (RPMI-8226): 0.189 µM (active)
GI50 (SK-MEL-2): 1.37 µM (inactive)
GI50 (SK-MEL-5): 1 µM (active)
GI50 (SN12C): 0.618 µM (active)
GI50 (SNB-75): 4.28 µM (inactive)
GI50 (SNB-78): 2.32 µM (inactive)
GI50 (UACC-257): 0.723 µM (active)
GI50 (UACC-62): 0.851 µM (active)
GI50 (XF498): 0.267 µM (active)

CO/C(=N\N=Cc1ccccc1)c1ccncc1
GI50 (A498): > 100 µM (inactive)
GI50 (A549): > 100 µM (inactive)
GI50 (ACHN): > 100 µM (inactive)
GI50 (CAKI-1): > 100 µM (inactive)
GI50 (CCRF-CEM): > 100 µM (inactive)
GI50 (COLO 205): > 100 µM (inactive)
GI50 (DLD-1): > 100 µM (inactive)
GI50 (DMS-114): > 100 µM (inactive)
GI50 (DMS-273): > 100 µM (inactive)
GI50 (EKVX): > 100 µM (inactive)
GI50 (HCC 2998): > 100 µM (inactive)
GI50 (HCT-116): > 100 µM (inactive)
GI50 (HCT-15): > 100 µM
GI50 (HL-60): > 100 µM (inactive)
GI50 (HOP-62): > 100 µM (inactive)
GI50 (HOP-92): > 100 µM (inactive)
GI50 (HT-29): > 100 µM (inactive)
GI50 (IGROV-1): > 100 µM (inactive)
GI50 (K562): > 100 µM (inactive)
GI50 (KM-20L2): > 100 µM (inactive)
GI50 (KM12): > 100 µM (inactive)
GI50 (LXFL 529): > 100 µM (inactive)
GI50 (M14): > 100 µM (inactive)
GI50 (M19-MEL): > 100 µM (inactive)
GI50 (MOLT-4): > 100 µM (inactive)
GI50 (Malme-3M): > 100 µM (inactive)
GI50 (NCI-H226): 12.6 µM (inactive)
GI50 (NCI-H23): > 100 µM (inactive)
GI50 (NCI-H460): > 100 µM (inactive)
GI50 (NCI-H522): 68.9 µM (inactive)
GI50 (OVCAR-3): > 100 µM (inactive)
GI50 (OVCAR-4): > 100 µM (inactive)
GI50 (OVCAR-5): > 100 µM (inactive)
GI50 (OVCAR-8): > 100 µM (inactive)
GI50 (RPMI-8226): > 100 µM (inactive)
GI50 (SF-268): > 100 µM (inactive)
GI50 (SF-295): > 100 µM (inactive)
GI50 (SF-539): > 100 µM (inactive)
GI50 (SK-MEL-28): > 100 µM (inactive)
GI50 (SK-MEL-2): > 100 µM (inactive)
GI50 (SK-MEL-5): > 100 µM (inactive)
GI50 (SK-OV-3): > 100 µM (inactive)
GI50 (SN12C): > 100 µM (inactive)
GI50 (SNB-19): > 100 µM (inactive)
GI50 (SNB-75): 31.3 µM (inactive)
GI50 (SNB-78): > 100 µM (inactive)
GI50 (SR): > 100 µM (inactive)
GI50 (SW-620): > 100 µM (inactive)
GI50 (TK-10): > 100 µM (inactive)
GI50 (U-251): > 100 µM (inactive)
GI50 (UACC-257): > 100 µM (inactive)
GI50 (UACC-62): > 100 µM (inactive)
GI50 (UO-31): 47.2 µM (inactive)
GI50 (XF498): 47.5 µM (inactive)

CC1COS(=O)O1 (stereo unspecified)
GI50 (786-0): > 100 µM (inactive)
GI50 (A498): > 100 µM (inactive)
GI50 (A549): > 100 µM (inactive)
GI50 (ACHN): > 100 µM (inactive)
GI50 (CAKI-1): > 100 µM (inactive)
GI50 (CCRF-CEM): > 100 µM (inactive)
GI50 (COLO 205): > 100 µM (inactive)
GI50 (DLD-1): > 100 µM (inactive)
GI50 (DMS-114): > 100 µM (inactive)
GI50 (DMS-273): > 100 µM (inactive)
GI50 (EKVX): > 100 µM (inactive)
GI50 (HCC 2998): > 100 µM (inactive)
GI50 (HCT-116): > 100 µM (inactive)
GI50 (HCT-15): > 100 µM
GI50 (HL-60): > 100 µM (inactive)
GI50 (HOP-18): > 100 µM (inactive)
GI50 (HOP-62): > 100 µM (inactive)
GI50 (HOP-92): > 100 µM (inactive)
GI50 (HT-29): > 100 µM (inactive)
GI50 (IGROV-1): > 100 µM (inactive)
GI50 (K562): > 100 µM (inactive)
GI50 (KM-20L2): > 100 µM (inactive)
GI50 (KM12): > 100 µM (inactive)
GI50 (LOX IMVI): > 100 µM (inactive)
GI50 (M14): > 100 µM (inactive)
GI50 (M19-MEL): > 100 µM (inactive)
GI50 (MOLT-4): > 100 µM (inactive)
GI50 (Malme-3M): > 100 µM (inactive)
GI50 (NCI-H226): > 100 µM (inactive)
GI50 (NCI-H23): > 100 µM (inactive)
GI50 (NCI-H460): > 100 µM (inactive)
GI50 (NCI-H522): > 100 µM (inactive)
GI50 (OVCAR-3): > 100 µM (inactive)
GI50 (OVCAR-4): > 100 µM (inactive)
GI50 (OVCAR-5): > 100 µM (inactive)
GI50 (OVCAR-8): > 100 µM (inactive)
GI50 (RPMI-8226): > 100 µM (inactive)
GI50 (SF-268): > 100 µM (inactive)
GI50 (SF-295): > 100 µM (inactive)
GI50 (SF-539): > 100 µM (inactive)
GI50 (SK-MEL-28): > 100 µM (inactive)
GI50 (SK-MEL-2): > 100 µM (inactive)
GI50 (SK-MEL-5): > 100 µM (inactive)
GI50 (SK-OV-3): > 100 µM (inactive)
GI50 (SN12C): > 100 µM (inactive)
GI50 (SNB-19): > 100 µM (inactive)
GI50 (SNB-75): 63 µM (inactive)
GI50 (SNB-78): > 100 µM (inactive)
GI50 (SR): > 100 µM (inactive)
GI50 (SW-620): > 100 µM (inactive)
GI50 (TK-10): > 100 µM (inactive)
GI50 (UACC-257): > 100 µM (inactive)
GI50 (UACC-62): > 100 µM (inactive)
GI50 (UO-31): > 100 µM (inactive)
GI50 (XF498): > 100 µM (inactive)

Reference: ChEMBL document CHEMBL1201862, “PubChem BioAssay data set” (2004)
